PMC10831071, “Reaction hijacking inhibition of Plasmodium falciparum asparagine tRNA synthetase” (Nature Communications, 2024)
Values after ≈ are worked out from the molar mass of the structure shown. Values joined by “and” are separate entries in the source; they are usually repeats but may differ in a detail not shown here. Identical values can stand only once.

What was measured:
[1] = system: P. falciparum Cam3.II-rev; experiment: Drug pulse (6 h) viability assay; format: cell-based, Plasmodium falciparum
Procedure: Viability was assessed in the second cycle by flow cytometry, following labeling with 2 μM Syto-61 (Thermo Fisher Scientific)[48],[49]. Viability represents the parasitemia normalized to untreated and “kill” controls that were treated with 2 μM dihydroartemisinin (DHA; Sigma-Aldrich) for 48–72 h. For drug pulse assays, tightly synchronized Cam3.II-rev[50] parasites (1–1.5% parasitemia, 0.2% final hematocrit) were added to the plates and incubated for 6 h. Drugs were removed and the parasitemia assessed in the trophozoite stage of the next cycle.

[2] = Solubility; format: physicochemical
[3] = target: PfAsnRS (Plasmodium falciparum, UniProt O96198); experiment: biochemical
[4] = target: T1, HsAsnRS (Homo sapiens, UniProt O43776); experiment: ATP consumption assay (Kinase-Glo), HsAsnRS; format: biochemical; details: for ATP consumption: HsAsnRS, normalised to 1 (Fig 3C)
T1 construct: HsAsnRS (residues M1–P548) and CDHsAsnRS (residues A98–P548); His6 (N, cleaved yes); made in house; host or cells: E. coli BL21 (DE3), pET11a
T1 sequence (O43776 1-548): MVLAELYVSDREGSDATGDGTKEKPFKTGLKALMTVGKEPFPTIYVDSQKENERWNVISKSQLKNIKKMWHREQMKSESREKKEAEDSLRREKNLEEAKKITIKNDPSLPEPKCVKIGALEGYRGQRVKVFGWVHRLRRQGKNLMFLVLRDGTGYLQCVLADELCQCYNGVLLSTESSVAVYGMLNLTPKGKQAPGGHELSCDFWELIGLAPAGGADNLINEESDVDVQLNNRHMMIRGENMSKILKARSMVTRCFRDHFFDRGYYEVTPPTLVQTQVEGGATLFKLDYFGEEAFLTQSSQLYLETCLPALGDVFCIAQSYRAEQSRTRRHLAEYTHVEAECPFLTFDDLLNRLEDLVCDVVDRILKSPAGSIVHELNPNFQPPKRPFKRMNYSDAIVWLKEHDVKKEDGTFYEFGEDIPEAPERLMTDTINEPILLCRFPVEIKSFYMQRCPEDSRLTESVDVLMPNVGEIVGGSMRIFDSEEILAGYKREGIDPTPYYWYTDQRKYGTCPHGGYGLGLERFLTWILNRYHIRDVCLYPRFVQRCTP

Sequence of PfAsnRS (O96198 entry or part of it): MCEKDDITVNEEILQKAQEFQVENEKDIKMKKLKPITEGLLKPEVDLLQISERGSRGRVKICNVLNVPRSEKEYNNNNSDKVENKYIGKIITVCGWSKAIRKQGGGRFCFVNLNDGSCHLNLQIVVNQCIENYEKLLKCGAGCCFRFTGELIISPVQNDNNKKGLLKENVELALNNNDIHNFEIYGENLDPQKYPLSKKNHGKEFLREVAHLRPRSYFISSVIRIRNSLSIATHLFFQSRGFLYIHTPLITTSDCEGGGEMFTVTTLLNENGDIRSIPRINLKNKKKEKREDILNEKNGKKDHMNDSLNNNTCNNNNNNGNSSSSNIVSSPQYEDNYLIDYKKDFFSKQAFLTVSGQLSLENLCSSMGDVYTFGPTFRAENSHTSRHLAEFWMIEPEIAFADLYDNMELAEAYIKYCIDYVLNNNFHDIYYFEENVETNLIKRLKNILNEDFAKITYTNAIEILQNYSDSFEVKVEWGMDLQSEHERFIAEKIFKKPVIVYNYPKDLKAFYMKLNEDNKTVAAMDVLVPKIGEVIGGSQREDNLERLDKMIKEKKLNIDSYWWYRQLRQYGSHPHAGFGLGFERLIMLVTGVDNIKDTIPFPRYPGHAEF

Nc1ncnc2cc(-c3cccc(S(N)(=O)=O)c3)sc12 [OSM-S-106]
Viability ([1]; 78.1 nM, 6 h pulse, individual experiments, 0 nM = 100): 93.5356 and 88.7263 | Viability ([1]; 156.3 nM, 6 h pulse, individual experiments, 0 nM = 100): 81.4036 and 83.8337 | Viability ([1]; 312.5 nM, 6 h pulse, individual experiments, 0 nM = 100): 81.9846 and 75.9519 | Viability ([1]; 625 nM, 6 h pulse, individual experiments, 0 nM = 100): 76.0359 and 75.5937 | Viability ([1]; 1250 nM, 6 h pulse, individual experiments, 0 nM = 100): 77.505 and 78.8039 | Viability ([1]; 2500 nM, 6 h pulse, individual experiments, 0 nM = 100): 63.2365 and 57.9681 | Viability ([1]; 5000 nM, 6 h pulse, individual experiments, 0 nM = 100): 58.8326 and 46.673 and 10.7308 | Viability ([1]; 10000 nM, 6 h pulse, individual experiments, 0 nM = 100): 6.448 and 2.352 and 1.857 | Viability ([1]; 20000 nM, 6 h pulse, individual experiments, 0 nM = 100): 0 and 0.3604 and 0.5288 | Viability ([1]; 40000 nM, 6 h pulse, individual experiments, 0 nM = 100): 1.032 and 0 (2×) | viability at 0.0781 µM ([1]; Plasmodium falciparum, 6 h, 78.1 nM, 6 h pulse, individual experiments, 0 nM = 100): 77.5% | viability at 0.1563 µM ([1]; Plasmodium falciparum, 6 h, 156.3 nM, 6 h pulse, individual experiments, 0 nM = 100): 80.2% | viability at 0.3125 µM ([1]; Plasmodium falciparum, 6 h, 312.5 nM, 6 h pulse, individual experiments, 0 nM = 100): 81.3% | viability at 0.625 µM ([1]; Plasmodium falciparum, 6 h, 625 nM, 6 h pulse, individual experiments, 0 nM = 100): 79.9% | viability at 1.25 µM ([1]; Plasmodium falciparum, 6 h, 1250 nM, 6 h pulse, individual experiments, 0 nM = 100): 79.8% | viability at […] ([1]; Plasmodium falciparum, 6 h, 2500 nM, 6 h pulse, individual experiments, 0 nM = 100): 77.1% | IC50 ([1]; Plasmodium falciparum, 6 h, read-out: IC50 (Viability)): 4.7 µM | solubility ([2]; pH 2, simulated gastric fluid): 50 to 100 µg/mL (≈ 163 to 326 µM) | solubility ([2]; pH 6.5, aqueous buffer): 12.5 to 25 µg/mL (≈ 40.8 to 81.6 µM) | ATP consumption ([3]; 0.1 μM OSM-S-106, PfAsnRS + tRNA, 0 μM = 100, 0.1 µM): 82.5658 and 96.0922 | ATP consumption ([3]; 0.1 μM OSM-S-106, PfAsnRS - tRNA, 0 μM = 100, 0.1 µM): 102.037 and 98.4072 and 106.756 and 97.2403 and 101.662 | ATP consumption ([3]; 0.1 μM OSM-S-106, PfAsnRS, normalised to 1 (Fig 3C), 0.1 µM): 0.9643 and 0.9875 | ATP consumption ([3]; 1 μM OSM-S-106, PfAsnRS + tRNA, 0 μM = 100, 1 µM): 57.1862 and 87.1941 | ATP consumption ([3]; 1 μM OSM-S-106, PfAsnRS - tRNA, 0 μM = 100, 1 µM): 113.687 and 120.029 and 93.4234 and 93.1495 and 103.899 | ATP consumption ([3]; 1 μM OSM-S-106, PfAsnRS, normalised to 1 (Fig 3C), 1 µM): 0.7028 and 0.7102 | ATP consumption ([3]; 3 μM OSM-S-106, PfAsnRS, normalised to 1 (Fig 3C), 3 µM): 0.5774 and 0.6156 | ATP consumption ([3]; 5 μM OSM-S-106, PfAsnRS + tRNA, 0 μM = 100, 5 µM): 38.7619 and 47.6862 | ATP consumption ([3]; 5 μM OSM-S-106, PfAsnRS - tRNA, 0 μM = 100, 5 µM): 106.249 and 114.714 and 99.7656 and 89.6731 and 97.6484 | ATP consumption ([3]; 10 μM OSM-S-106, PfAsnRS + tRNA, 0 μM = 100, 10 µM): 33.3781 and 42.1739 | ATP consumption ([3]; 10 μM OSM-S-106, PfAsnRS - tRNA, 0 μM = 100, 10 µM): 118.679 and 119.307 and 117.388 and 114.394 and 95.1041 and 101.36 | ATP consumption ([3]; 10 μM OSM-S-106, PfAsnRS, normalised to 1 (Fig 3C), 10 µM): 0.4326 and 0.4705 | ATP consumption ([3]; 25 μM OSM-S-106, PfAsnRS + tRNA, 0 μM = 100, 25 µM): 31.8347 and 29.629 | ATP consumption ([3]; 25 μM OSM-S-106, PfAsnRS - tRNA, 0 μM = 100, 25 µM): 125.392 and 106.541 and 117.104 and 104.95 and 102.467 and 90.9619 | ATP consumption ([3]; 30 μM OSM-S-106, PfAsnRS, normalised to 1 (Fig 3C), 30 µM): 0.3585 and 0.3795 | ATP consumption ([3]; 100 μM OSM-S-106, PfAsnRS + tRNA, 0 μM = 100, 100 µM): 21.4279 and 12.1476 | ATP consumption ([3]; 100 μM OSM-S-106, PfAsnRS - tRNA, 0 μM = 100, 100 µM): 100.893 and 101.422 and 99.2831 and 94.8016 and 84.8517 | ATP consumption ([3]; 100 μM OSM-S-106, PfAsnRS, normalised to 1 (Fig 3C), 100 µM): 0.3092 and 0.3431 | ATP consumption ([3]; 200 μM OSM-S-106, PfAsnRS - tRNA, 0 μM = 100, 200 µM): 112.741 and 109.993 and 91.5345 and 106.529 and 72.1689 | ATP consumption ([3]; 200 μM OSM-S-106, PfAsnRS, normalised to 1 (Fig 3C), 200 µM): 0.2731 and 0.3306 | ATP consumption ([3]; 500 μM OSM-S-106, PfAsnRS - tRNA, 0 μM = 100, 500 µM): 107.256 and 120.979 and 131.723 and 125.52 and 90.3898 and 80.1015 | IC50 ([3]; IC50, ATP consumption, 0.05 μM PfAsnRS, E. coli tRNA present, 37 °C, 1 h (Fig. 3C, D)): 6.2 µM | IC50 ([3]; IC50, ATP consumption, minus E. coli tRNA, 0.5 μM enzyme, […] (Fig. 3B)): > 500 µM | IC50 ([3]; IC50, ATP consumption, plus E. coli tRNA, 0.5 μM enzyme, 37 °C, […] (Fig. 3B)): 7.3 µM | IC50 ([3]; concentration needed to induce 50% inhibition of ATP consumption): ~1 µM | ATP consumption ([4]; 0.1 μM OSM-S-106): 0.9809 and 0.9695 and 0.9878 | IC50 ([4]; 0.2 μM HsAsnRS, E. coli tRNA present, 37 °C, 1 h (Fig. 3C, D)): > 100 µM | ATP consumption ([4]; 1 μM OSM-S-106): 0.993 and 0.9826 and 1 | ATP consumption ([4]; 3 μM OSM-S-106): 0.9931 and 0.9791 and 0.9532 | ATP consumption ([4]; 10 μM OSM-S-106): 0.9721 and 1 and 0.9745 | ATP consumption ([4]; 30 μM OSM-S-106): 0.9297 and 0.9566 and 0.9615 | ATP consumption ([4]; 100 μM OSM-S-106): 0.955 and 0.928 and 0.9784 | ATP consumption ([4]; 200 μM OSM-S-106): 0.929 and 0.9898
